Patent US20150025236A1, “PROCESS FOR THE PREPARATION OF STABLE CRYSTALLINE FORM-I OF LINEZOLID, SUBSTANTIALLY FREE OF RESIDUAL SOLVENT” (Jubilant Life Sciences Limited, priority 2012, published 2015)

Assay: Stability study: determination of linezolid Form-II content in linezolid Form-I (polymorph status by XRD)

Q: Which “Polymorphic stability (formation of polymorphic impurity Form-II)” value (containing residual solvent(s), though complying with the regulatory norms) does the source give for `CC(=O)NC[C@H]1CN(c2ccc(N3CCOCC3)c(F)c2)C(=O)O1` [Linezolid Form-I, (S)—N-[[3-(3-fluoro-4-morpholinylphenyl)-2-oxo-5-oxazolidinyl]methyl]acetamide] here?
A: undergoes transformation into Form II

Q: What about the “Time stable during stability study” value (different conditions of relative humidity (RH) and temperature (Table-1)) of the same compound?
A: up to 12 months

Q: What about the “Polymorphic stability (formation of polymorphic impurity Form-II)” value (substantially free of solvent(s)) of the same compound?
A: does not generate polymorphic impurity, Form-II
